# From patent US12357711B2, “PSMA binding dual mode radiotracer and therapeutic” (Technische Universität München, priority 2019, dated 2025)
# Tested on: SCID mice
# Test: Preclinical dosimetry from biodistribution in mice, extrapolated to 70-kg Standard Adult (OLINDA/EXM 1.0)
# Type: in vivo
# Conditions: 1.0 h bladder voiding interval
# Method: 3-5 mice were injected per timepoint with a mean 25.6±3.6 MBq of 18F-rhPSMA-7 and 28.5±4.8 MBq of 18F-rhPSMA-7.3, respectively. Mice, severe combined immunodeficiency (SCID) were used for the experiments.
# Mice were sacrificed at the following timepoints: • ^18F-rhPSMA-7: 10, 20, 40, 60, 120 and 180 minutes after administration. • ^18F-rhPSMA-7.3: 10, 60, 120, 180 and 300 minutes after administration.
# Urine, blood, heart, lung, spleen, pancreas, liver, stomach (emptied), small intestine (emptied), large intestine (emptied), kidneys, bladder, testis, fat, muscle (partial, femoral), femur, tail and brain. Urine was collected with a pipette in the CO2 gas chamber. In case of missing urination in the chamber the bladder was aspirated with an insulin syringe. Blood was withdrawn instantly after sacrifice with an insulin syringe from the heart. All other tissues and organs were dissected and transferred directly in plastic containers.
# The counting rates of measurement samples were automatically corrected for decay. The radioactivity distribution ratios (unit: percentage of the injected dose (% ID) in the measurement samples were determined using the equation below. The sum of the counting rates from all measurement samples obtained from one mouse was designated as the counting rate for administrated radioactivity.
# The radioactivity distribution ratio per unit weight of the measurement sample (unit: % ID/g) excluding urine and feces samples was determined by using the equation below. The weight of the measurement sample was determined by subtraction of the empty measurement container from the container including the sample.
# For consistency of statistical calculations for each radiotracer the same number of time-points for ^18F-rhPSMA-7 and ^18F-rhPSMA-7.3 was used. Therefore, for ^18F-rhPSMA-7 the 10 min and 20 min time points were combined creating a 15 min endpoint.
# The time-integral of activity for the accumulation in the significant source organs (AUCs) were generated both with numerical integration and physical decay according to J Juan et al., Journal of Pharmaceutical Sciences, 1993, 82:762-763.
# In brief, to calculate a human dosimetry from the biodistribution in the mice, an extrapolation was necessary to account for the differences between the animals and humans. Normal-organ radiation doses were estimated for the 70-kg Standard Adult anatomic model using time-depending organ activity concentrations (in percent of the injected dose per gram, % ID/g) and total-body activities measured in the biodistribution studies in mice.
# Tissue activity concentrations in mice were converted to tissue fractional activities in the 70-kg Standard Adult using the relative fractional organ masses in the Standard Adult and the “standard” 25-gramm mouse. Time-dependent total-body activity was fit to an exponential function and the difference between the injected activity and the total-body activity was assumed to be excreted to the urine because activity concentrations in the liver and GI tracer were low at all time points studied.
# Organ residence time was calculated by numerical integration using the trapezoidal rule and the rest-of-body ^18F residence times was calculated as the difference between the total-body residence time and the sum of the organ and urine residence times. The bladder contents residence time was estimated using the dynamic voiding model in the OLINDA/EXM 1.0 dosimetry software. Finally, the Standard Adult mean organ dose equivalents (in mSv/MBq) and effective dose (also in mSv/MBq) were then calculated using OLIN DA/EXM 1.0.
# Final calculation of radiation absorbed dose and dosimetry from biodistribution in mice: The tissues or organs in which a significant accumulation of radioactivity occurs (i.e., source organ) were kidney, spleen, lung, liver and heart. With respect to activity accumulation and clearance, a rapid clearance from blood and clearance to urine but relatively slow build-up in kidney was found.
substance,measurement,value
[^19F][^natGa]D/L-Dap-R/S-DOTAGA-rhPSMA7 [rhPSMA7-rac],Adrenals ED Cont.,3.79E−05 mSv/MBq
same,Adrenals EDE Cont.,0.00E000 mSv/MBq
same,Adrenals dose Alpha,0.00E000 mSv/MBq
same,Adrenals dose Beta,1.95E−03 mSv/MBq
same,Adrenals dose Photon,5.64E−03 mSv/MBq
same,Adrenals dose Total,7.59E−03 mSv/MBq
same,Brain ED Cont.,2.24E−05 mSv/MBq
same,Brain EDE Cont.,0.00E000 mSv/MBq
same,Brain dose Alpha,0.00E000 mSv/MBq
same,Brain dose Beta,1.95E−03 mSv/MBq
same,Brain dose Photon,2.54E−03 mSv/MBq
same,Brain dose Total,4.49E−03 mSv/MBq
same,Breasts ED Cont.,2.10E−04 mSv/MBq
same,Breasts EDE Cont.,6.30E−04 mSv/MBq
same,Breasts dose Alpha,0.00E000 mSv/MBq
same,Breasts dose Beta,1.95E−03 mSv/MBq
same,Breasts dose Photon,2.25E−03 mSv/MBq
same,Breasts dose Total,4.20E−03 mSv/MBq
same,Gallbladder Wall ED Cont.,0.00E000 mSv/MBq
same,Gallbladder Wall EDE Cont.,0.00E000 mSv/MBq
same,Gallbladder Wall dose Alpha,0.00E000 mSv/MBq
same,Gallbladder Wall dose Beta,1.95E−03 mSv/MBq
same,Gallbladder Wall dose Photon,4.96E−03 mSv/MBq
same,Gallbladder Wall dose Total,6.91E−03 mSv/MBq
same,Heart Wall ED Cont.,0.00E000 mSv/MBq
same,Heart Wall EDE Cont.,0.00E000 mSv/MBq
same,Heart Wall dose Alpha,0.00E000 mSv/MBq
same,Heart Wall dose Beta,8.82E−04 mSv/MBq
same,Heart Wall dose Photon,3.48E−03 mSv/MBq
same,Heart Wall dose Total,4.36E−03 mSv/MBq
same,Kidneys ED Cont.,3.23E−04 mSv/MBq
same,Kidneys EDE Cont.,3.88E−03 mSv/MBq
same,Kidneys dose Alpha,0.00E000 mSv/MBq
same,Kidneys dose Beta,4.70E−02 mSv/MBq
same,Kidneys dose Photon,1.76E−02 mSv/MBq
same,Kidneys dose Total,6.47E−02 mSv/MBq
same,LLI Wall ED Cont.,1.10E−03 mSv/MBq
same,LLI Wall EDE Cont.,5.52E−04 mSv/MBq
same,LLI Wall dose Alpha,0.00E000 mSv/MBq
same,LLI Wall dose Beta,1.95E−03 mSv/MBq
same,LLI Wall dose Photon,7.25E−03 mSv/MBq
same,LLI Wall dose Total,9.20E−03 mSv/MBq
same,Liver ED Cont.,2.01E−04 mSv/MBq
same,Liver EDE Cont.,0.00E000 mSv/MBq
same,Liver dose Alpha,0.00E000 mSv/MBq
same,Liver dose Beta,6.35E−04 mSv/MBq
same,Liver dose Photon,3.39E−03 mSv/MBq
same,Liver dose Total,4.02E−03 mSv/MBq
same,Lungs ED Cont.,5.11E−04 mSv/MBq
same,Lungs EDE Cont.,5.11E−04 mSv/MBq
same,Lungs dose Alpha,0.00E000 mSv/MBq
same,Lungs dose Beta,1.25E−03 mSv/MBq
same,Lungs dose Photon,3.01E−03 mSv/MBq
same,Lungs dose Total,4.26E−03 mSv/MBq
same,Muscle ED Cont.,2.98E−05 mSv/MBq
same,Muscle EDE Cont.,0.00E000 mSv/MBq
same,Muscle dose Alpha,0.00E000 mSv/MBq
same,Muscle dose Beta,1.95E−03 mSv/MBq
same,Muscle dose Photon,4.01E−03 mSv/MBq
same,Muscle dose Total,5.96E−03 mSv/MBq
same,Osteogenic Cells ED Cont.,8.27E−05 mSv/MBq
same,Osteogenic Cells EDE Cont.,2.48E−04 mSv/MBq
same,Osteogenic Cells dose Alpha,0.00E000 mSv/MBq
same,Osteogenic Cells dose Beta,4.18E−03 mSv/MBq
same,Osteogenic Cells dose Photon,4.09E−03 mSv/MBq
same,Osteogenic Cells dose Total,8.27E−03 mSv/MBq
same,Ovaries ED Cont.,1.83E−03 mSv/MBq
same,Ovaries EDE Cont.,2.29E−03 mSv/MBq
same,Ovaries dose Alpha,0.00E000 mSv/MBq
same,Ovaries dose Beta,1.95E−03 mSv/MBq
same,Ovaries dose Photon,7.21E−03 mSv/MBq
same,Ovaries dose Total,9.16E−03 mSv/MBq
same,Pancreas ED Cont.,3.90E−05 mSv/MBq
same,Pancreas EDE Cont.,0.00E000 mSv/MBq
same,Pancreas dose Alpha,0.00E000 mSv/MBq
same,Pancreas dose Beta,1.95E−03 mSv/MBq
same,Pancreas dose Photon,5.86E−03 mSv/MBq
same,Pancreas dose Total,7.80E−03 mSv/MBq
same,Red Marrow ED Cont.,6.82E−04 mSv/MBq
same,Red Marrow EDE Cont.,6.82E−04 mSv/MBq
same,Red Marrow dose Alpha,0.00E000 mSv/MBq
same,Red Marrow dose Beta,1.39E−03 mSv/MBq
same,Red Marrow dose Photon,4.29E−03 mSv/MBq
same,Red Marrow dose Total,5.68E−03 mSv/MBq
same,Skin ED Cont.,4.32E−05 mSv/MBq
same,Skin EDE Cont.,0.00E000 mSv/MBq
same,Skin dose Alpha,0.00E000 mSv/MBq
same,Skin dose Beta,1.95E−03 mSv/MBq
same,Skin dose Photon,2.38E−03 mSv/MBq
same,Skin dose Total,4.32E−03 mSv/MBq
same,Small Intestine ED Cont.,3.87E−05 mSv/MBq
same,Small Intestine EDE Cont.,0.00E000 mSv/MBq
same,Small Intestine dose Alpha,0.00E000 mSv/MBq
same,Small Intestine dose Beta,1.95E−03 mSv/MBq
same,Small Intestine dose Photon,5.79E−03 mSv/MBq
same,Small Intestine dose Total,7.73E−03 mSv/MBq
same,Spleen ED Cont.,1.29E−04 mSv/MBq
same,Spleen EDE Cont.,1.55E−03 mSv/MBq
same,Spleen dose Alpha,0.00E000 mSv/MBq
same,Spleen dose Beta,1.59E−02 mSv/MBq
same,Spleen dose Photon,9.90E−03 mSv/MBq
same,Spleen dose Total,2.58E−02 mSv/MBq
same,Stomach Wall ED Cont.,7.98E−04 mSv/MBq
same,Stomach Wall EDE Cont.,0.00E000 mSv/MBq
same,Stomach Wall dose Alpha,0.00E000 mSv/MBq
same,Stomach Wall dose Beta,1.95E−03 mSv/MBq
same,Stomach Wall dose Photon,4.70E−03 mSv/MBq
same,Stomach Wall dose Total,6.65E−03 mSv/MBq
same,Testes ED Cont.,0.00E000 mSv/MBq
same,Testes EDE Cont.,0.00E000 mSv/MBq
same,Testes dose Alpha,0.00E000 mSv/MBq
same,Testes dose Beta,1.95E−03 mSv/MBq
same,Testes dose Photon,5.09E−03 mSv/MBq
same,Testes dose Total,7.03E−03 mSv/MBq
same,Thymus ED Cont.,2.57E−05 mSv/MBq
same,Thymus EDE Cont.,0.00E000 mSv/MBq
same,Thymus dose Alpha,0.00E000 mSv/MBq
same,Thymus dose Beta,1.95E−03 mSv/MBq
same,Thymus dose Photon,3.20E−03 mSv/MBq
same,Thymus dose Total,5.15E−03 mSv/MBq
same,Thyroid ED Cont.,2.59E−04 mSv/MBq
same,Thyroid EDE Cont.,1.55E−04 mSv/MBq
same,Thyroid dose Alpha,0.00E000 mSv/MBq
same,Thyroid dose Beta,1.95E−03 mSv/MBq
same,Thyroid dose Photon,3.23E−03 mSv/MBq
same,Thyroid dose Total,5.17E−03 mSv/MBq
same,Total Body ED Cont.,0.00E000 mSv/MBq
same,Total Body EDE Cont.,0.00E000 mSv/MBq
same,Total Body dose Alpha,0.00E000 mSv/MBq
same,Total Body dose Beta,2.27E−03 mSv/MBq
same,Total Body dose Photon,3.93E−03 mSv/MBq
same,Total Body dose Total,6.19E−03 mSv/MBq
same,ULI Wall ED Cont.,3.64E−05 mSv/MBq
same,ULI Wall EDE Cont.,0.00E000 mSv/MBq
same,ULI Wall dose Alpha,0.00E000 mSv/MBq
same,ULI Wall dose Beta,1.95E−03 mSv/MBq
same,ULI Wall dose Photon,5.33E−03 mSv/MBq
same,ULI Wall dose Total,7.27E−03 mSv/MBq
same,Urinary Bladder Wall ED Cont.,5.76E−03 mSv/MBq
same,Urinary Bladder Wall EDE Cont.,6.92E−03 mSv/MBq
same,Urinary Bladder Wall dose Alpha,0.00E000 mSv/MBq
same,Urinary Bladder Wall dose Beta,7.87E−02 mSv/MBq
same,Urinary Bladder Wall dose Photon,3.66E−02 mSv/MBq
same,Urinary Bladder Wall dose Total,1.15 E−01 mSv/MBq
same,Uterus ED Cont.,6.56E−05 mSv/MBq
same,Uterus EDE Cont.,7.87E−04 mSv/MBq
same,Uterus dose Alpha,0.00E000 mSv/MBq
same,Uterus dose Beta,1.95E−03 mSv/MBq
same,Uterus dose Photon,1.12E−02 mSv/MBq
same,Uterus dose Total,1.31E−02 mSv/MBq
